Test results reported in patent publication US20260202298A1, “HIGH-THROUGHPUT MEASUREMENT OF P[…] PARTICLE COUNTS, DISTRIBUTIONS, AND COMPOSITION” (priority 2021, published 2026).

Tests used:
[1] = tested on: A/PR8/34 or A/Ud/72 (with X31 or A/Aichi/68 HA) IAV; type: cell-based, influenza A virus in human lung epithelial cell line Calu3; conditions: FIG. 12B, PR8 and XUd viruses
[2] = tested on: XUd (WT1) or PR8 (WT2) influenza viruses; type: cell-based, influenza virus in MDCK cells; conditions: at higher concentrations

COC(=O)OCOc1c2n(ccc1=O)N([C@@H]1c3ccccc3SCc3c1ccc(F)c3F)[C@@H]1COCCN1C2=O [baloxavir, baloxavir marboxil]
virion yield vs. fraction of filamentous particles produced [1]: lower virion yields are associated with increased fraction of filamentous particles produced

CCOC(=O)C1=C[C@@H](OC(CC)CC)[C@H](NC(C)=O)[C@@H](N)C1 [oseltamivir]
effect on virion yield [2]: reduces virion yield | size of individual virus particles [2]: remains enriched in spherical particles | virion aggregation [2]: induces virion aggregation
